Measurements: US20240417406A1, “NITROGEN-CONTAINING TRICYCLIC COMPOUND AND PHARMACEUTICAL USE THEREOF” (JAPAN TOBACCO INC., priority 2021, published 2024)

biological target: human PDHK2 (hPDHK2) (Homo sapiens (Human), UniProt Q15119); assay: Inhibitory action of PDHK2 activity (PDH/hPDHK2 complex, residual PDH activity by NADH absorbance at 340 nm); type: biochemical; settings: FLAG-tagged recombinant hPDHK2 with porcine heart PDH complex; PDHK reaction 45 min at room temperature
Method in brief: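 N-FLAG hPDHK2 from E. coli (0.5 μg/mL) preincubated overnight at 4 °C with porcine heart PDH complex (0.025 U/mL), pH 7.0 MOPS buffer. Pyruvate, CoA, NAD and TPP substrates added, 90 min at room temperature. Residual PDH activity from NADH A340 change, corrected for compound effect on PDH alone; IC50 from inhibition %.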

Structure (SMILES) | IC50
C[C@H]1Cc2c(cnn2C)-c2onc([C@@](C)(O)C(F)(F)F)c21 (racemic) [Example 24] | 25.4 nM
C[C@H]1Cn2nc(OCCC(C)(C)O)cc2-c2onc([C@@](C)(O)C(F)(F)F)c21 [Example 62, 2-methyl-4-(((R)-4-methyl-3-((R)-1,1,1-trifluoro-2-hydroxypropan-2-yl)-4,5-dihydroisoxazolo[5,4-c]pyrazolo[1,5-a]pyridin-8-yl)oxy)butan-2-ol] | 8 nM
C[C@H]1Cn2c(nnc2C2CC2)-c2onc([C@@](C)(O)C(F)(F)F)c21 [Example 5] | 10.6 nM
C[C@H]1Cn2c(nnc2C2(C(F)(F)F)CC2)-c2onc([C@@](C)(O)C(F)(F)F)c21 [Example 2] | 19.2 nM
C[C@H]1Cc2[nH]ncc2-c2onc([C@@](C)(O)C(F)(F)F)c21 (racemic) [Example 20] | 22.6 nM
C[C@H]1Cn2nc(C3CCOCC3)cc2-c2onc([C@@](C)(O)C(F)(F)F)c21 (racemic) [Example 52] | 15 nM
C[C@H]1Cn2nc(N3CC4(C3)CC(F)(F)C4)cc2-c2cnc([C@@](C)(O)C(F)(F)F)n21 [Example 84, (R)-2-((S)-9-(6,6-difluoro-2-azaspiro[3.3]heptan-2-yl)-5-methyl-5,6-dihydroimidazo[1,5-a]pyrazolo[5,1-c]pyrazin-3-yl)-1,1,1-trifluoropropan-2-ol] | 36.5 nM
C[C@H]1Cn2nc(OCc3ccccc3)cc2-c2onc([C@@](C)(O)C(F)(F)F)c21 (racemic) [Example 15] | 10.9 nM
C[C@H]1Cn2nc(N3C[C@H]4COC[C@H]4C3)cc2-c2cnc([C@@](C)(O)C(F)(F)F)n21 [Example 80] | 43.4 nM
C[C@H]1Cn2c(nnc2C(F)F)-c2onc([C@@](C)(O)C(F)(F)F)c21 [Example 25] | 15.7 nM
